Measured values reported in ChEMBL document CHEMBL3813672, “Discovery of anti-cancer activity for benzo[1,2,4]triazin-7-ones: Very strong correlation to pleurotin and thioredoxin reductase inhibition” (Bioorg Med Chem, 2016).

Experiments:
[1] = Mixed-type inhibition of rat liver thioredoxin reductase using DTNB as substrate measured for 50 mins at 5 mins intervals in presence of NADPH by Lineweaver-Burk plot analysis
[2] = Growth inhibition of human SKOV3 cells incubated for 48 hrs by sulforhodamine B assay; format: functional; settings: SK-OV-3, 48 h
[3] = Uncompetitive inhibition of rat liver thioredoxin reductase using DTNB as substrate measured for 50 mins at 5 mins intervals in presence of NADPH by Lineweaver-Burk plot analysis
[4] = Growth inhibition of human HCC2998 cells incubated for 48 hrs by sulforhodamine B assay; format: functional; settings: HCC 2998, 48 h
[5] = Growth inhibition of human SF268 cells incubated for 48 hrs by sulforhodamine B assay; format: functional; settings: SF-268, 48 h
[6] = Growth inhibition of human SNB75 cells incubated for 48 hrs by sulforhodamine B assay; format: functional; settings: SNB-75, 48 h
[7] = test system: SK-MEL-2; test: Growth inhibition of human SK-MEL-2 cells incubated for 48 hrs by sulforhodamine B assay; format: functional; settings: SK-MEL-2, 48 h
[8] = test system: KM12; test: Growth inhibition of human KM12 cells incubated for 48 hrs by sulforhodamine B assay; format: functional; settings: KM12, 48 h
[9] = Growth inhibition of human COLO205 cells incubated for 48 hrs by sulforhodamine B assay; format: functional; settings: COLO 205, 48 h
[10] = test system: A498; test: Growth inhibition of human A498 cells incubated for 48 hrs by sulforhodamine B assay; format: functional; settings: A498, 48 h
[11] = test system: MDA-MB-231; test: Growth inhibition of human MDA-MB-231/ATCC cells incubated for 48 hrs by sulforhodamine B assay; format: functional; settings: MDA-MB-231, 48 h
[12] = Growth inhibition of human Caki1 cells incubated for 48 hrs by sulforhodamine B assay; format: functional; settings: CAKI-1, 48 h
[13] = Growth inhibition of human UACC62 cells incubated for 48 hrs by sulforhodamine B assay; format: functional; settings: UACC-62, 48 h
[14] = test system: NCI/ADR-RES; test: Growth inhibition of human NCI/ADR-RES cells incubated for 48 hrs by sulforhodamine B assay; format: functional
[15] = Growth inhibition of human UACC257 cells incubated for 48 hrs by sulforhodamine B assay; format: functional; settings: UACC-257, 48 h
[16] = Growth inhibition of human SF539 cells incubated for 48 hrs by sulforhodamine B assay; format: functional; settings: SF-539, 48 h
[17] = test system: CCRF-CEM; test: Growth inhibition of human CCRF-CEM cells incubated for 48 hrs by sulforhodamine B assay; format: functional
[18] = Growth inhibition of human SF295 cells incubated for 48 hrs by sulforhodamine B assay; format: functional; settings: SF-295, 48 h
[19] = test system: SR; test: Growth inhibition of human SR cells incubated for 48 hrs by sulforhodamine B assay; format: functional
[20] = test system: NCI-H226; test: Growth inhibition of human NCI-H226 cells incubated for 48 hrs by sulforhodamine B assay; format: functional; settings: NCI-H226, 48 h
[21] = test system: NCI-H522; test: Growth inhibition of human NCI-H522 cells incubated for 48 hrs by sulforhodamine B assay; format: functional; settings: NCI-H522, 48 h
[22] = test system: NCI-H460; test: Growth inhibition of human NCI-H460 cells incubated for 48 hrs by sulforhodamine B assay; format: functional; settings: NCI-H460, 48 h
[23] = Selectivity ratio of IC50 for human GM00637 cells to IC50 for human MCF7 cells; format: ADME, cell-based; settings: GM00637 cells versus MCF7 cells, read-out: Ratio IC50
[24] = test system: SK-MEL-5; test: Growth inhibition of human SK-MEL-5 cells incubated for 48 hrs by sulforhodamine B assay; format: functional; settings: SK-MEL-5, 48 h
[25] = read-out: pLC50 (the source's name) (converted)

## O=c1ccc2nc(-c3ccccc3)nn(-c3ccccc3)c-2c1
[1]
  Ki: 3.9 µM

## O=c1ccc2nc(C(F)(F)F)nn(-c3ccccc3)c-2c1
[2]
  GI50: 15.1 µM
[2]; [25]
  CC50: > 100 µM
[2]; read-out: pTGI
  TGI: > 100 µM
[3]
  Ki: 780 nM
[4]
  GI50: 15.5 µM
[4]; [25]
  CC50: 57.5 µM
[4]; read-out: pTGI (converted)
  TGI: 29.5 µM
[5]
  GI50: 15.1 µM
[5]; [25]
  CC50: 56.2 µM
[5]; read-out: pTGI (converted)
  TGI: 28.8 µM
[6]
  GI50: 13.2 µM
[6]; [25]
  CC50: 52.5 µM
[6]; read-out: pTGI (converted)
  TGI: 26.3 µM
[7]
  GI50: 3.63 µM
[7]; [25]
  CC50: 58.9 µM
[7]; read-out: pTGI (converted)
  TGI: 15.5 µM
[8]
  GI50: 19.5 µM
[8]; [25]
  CC50: 70.8 µM
[8]; read-out: pTGI (converted)
  TGI: 37.2 µM
[9]
  GI50: 2290 nM
[9]; [25]
  CC50: > 100 µM
[9]; read-out: pTGI (converted)
  TGI: 5.75 µM
[10]
  GI50: 14.1 µM
[10]; [25]
  CC50: 52.5 µM
[10]; read-out: pTGI (converted)
  TGI: 26.9 µM
[11]
  GI50: 1910 nM
[11]; [25]
  CC50: 26.9 µM
[11]; read-out: pTGI (converted)
  TGI: 5.62 µM
[12]
  GI50: 1480 nM
[12]; [25]
  CC50: 5.37 µM
[12]; read-out: pTGI (converted)
  TGI: 2820 nM
[13]
  GI50: 5.13 µM
[13]; [25]
  CC50: 43.7 µM
[13]; read-out: pTGI (converted)
  TGI: 17.8 µM
[14]
  GI50: 53.7 µM
[14]; [25]
  CC50: > 100 µM
[14]; read-out: pTGI (converted)
  TGI: 64.6 µM
[15]
  GI50: 1910 nM
[15]; [25]
  CC50: 8.51 µM
[15]; read-out: pTGI (converted)
  TGI: 4.07 µM
[16]
  GI50: 15.8 µM
[16]; [25]
  CC50: 55 µM
[16]; read-out: pTGI (converted)
  TGI: 29.5 µM
[17]
  GI50: 2340 nM
[17]; [25]
  CC50: > 100 µM
[18]
  GI50: 22.9 µM
[18]; [25]
  CC50: > 100 µM
[18]; read-out: pTGI (converted)
  TGI: 67.6 µM
[19]
  GI50: 1000 nM
[19]; [25]
  CC50: > 100 µM
[19]; read-out: pTGI
  TGI: > 100 µM
[20]
  GI50: 13.2 µM
[20]; [25]
  CC50: 70.8 µM
[20]; read-out: pTGI (converted)
  TGI: 30.2 µM
[21]
  GI50: 1510 nM
[21]; [25]
  CC50: 6.03 µM
[21]; read-out: pTGI (converted)
  TGI: 3.02 µM
[22]
  GI50: 17.8 µM
[22]; [25]
  CC50: 74.1 µM
[22]; read-out: pTGI (converted)
  TGI: 36.3 µM
[23]
  selectivity ratio: 3
[24]
  GI50: 7.76 µM
[24]; [25]
  CC50: 47.9 µM
[24]; read-out: pTGI (converted)
  TGI: 20.9 µM
